From US11555012B2 (Nimbus Artemis, Inc., priority 2018, dated 2023)

biological target: ACL (Homo sapiens (Human), UniProt P53396); assay: ADP-Glo Assay; conditions: not given
Sequence (P53396 other isoform, or with tags, fused parts or gaps isoform P53396-2): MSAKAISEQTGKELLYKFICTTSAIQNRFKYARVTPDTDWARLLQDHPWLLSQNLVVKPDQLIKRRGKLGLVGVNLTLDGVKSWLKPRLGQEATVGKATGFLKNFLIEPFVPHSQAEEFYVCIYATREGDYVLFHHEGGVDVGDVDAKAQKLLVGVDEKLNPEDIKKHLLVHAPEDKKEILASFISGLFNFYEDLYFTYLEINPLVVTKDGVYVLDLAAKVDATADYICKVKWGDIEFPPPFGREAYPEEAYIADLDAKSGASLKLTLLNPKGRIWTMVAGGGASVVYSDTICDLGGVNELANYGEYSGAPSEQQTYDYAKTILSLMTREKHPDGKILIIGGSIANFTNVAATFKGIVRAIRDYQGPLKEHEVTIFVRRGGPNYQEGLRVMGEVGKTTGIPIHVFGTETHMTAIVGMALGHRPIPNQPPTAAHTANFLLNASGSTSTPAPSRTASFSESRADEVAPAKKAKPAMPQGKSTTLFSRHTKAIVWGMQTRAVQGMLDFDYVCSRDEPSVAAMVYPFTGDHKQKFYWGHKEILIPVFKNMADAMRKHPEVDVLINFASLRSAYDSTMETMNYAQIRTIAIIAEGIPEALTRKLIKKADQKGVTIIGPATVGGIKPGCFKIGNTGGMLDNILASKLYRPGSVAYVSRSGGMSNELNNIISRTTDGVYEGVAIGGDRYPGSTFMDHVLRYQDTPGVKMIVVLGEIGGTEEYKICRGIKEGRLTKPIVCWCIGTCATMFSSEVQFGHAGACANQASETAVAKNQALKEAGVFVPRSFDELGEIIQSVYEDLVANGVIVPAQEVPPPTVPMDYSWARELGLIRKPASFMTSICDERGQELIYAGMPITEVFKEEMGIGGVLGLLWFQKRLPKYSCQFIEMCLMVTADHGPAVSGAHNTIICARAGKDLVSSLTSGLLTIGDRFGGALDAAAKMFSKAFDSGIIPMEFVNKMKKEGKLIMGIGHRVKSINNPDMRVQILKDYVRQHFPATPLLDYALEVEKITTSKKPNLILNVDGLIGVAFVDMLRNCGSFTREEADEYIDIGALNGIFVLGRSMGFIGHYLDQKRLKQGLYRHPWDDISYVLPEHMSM

| IC50 | SMILES |
| --- | --- |
| > 20 µM | COc1ccc(-c2ccccc2)cc1NS(=O)(=O)c1cc(C(=O)O)ccc1Cl [I-438, 4-chloro-3-[(2-methoxy-5-phenylphenyl)sulfamoyl]benzoic acid] |
| 0.5 to 20 µM | O=C(O)COc1ccc(-c2ccccc2)cc1NS(=O)(=O)c1cc(F)cc(Cl)c1 [I-238, 2-((3-((3-chloro-5-fluorophenyl)sulfonamido)-[1,1′-biphenyl]-4-yl)oxy)acetic Acid] |
| > 20 µM | COc1ccc(-c2ccccc2)cc1NS(=O)(=O)c1cccc(-c2nnnn2C)c1 [I-437, N-(2-methoxy-5-phenylphenyl)-3-(1-methyl-1H-1,2,3,4-tetrazol-5-yl)benzene-1-sulfonamide] |
| 0.5 to 20 µM | O=S(=O)(Nc1cc(-c2ccccc2)ccc1F)c1ccc(Cl)c(-c2nnn[nH]2)c1 [I-252] |
| 0.5 to 20 µM | O=C(O)c1ccc(-c2ccccc2)cc1NS(=O)(=O)c1cc(Br)cs1 [I-319, 3-((4-bromothiophene)-2-sulfonamido)-[1,1′-biphenyl]-4-carboxylic acid] |
| 0.5 to 20 µM | COc1ccc(-c2ccccc2)cc1NS(=O)(=O)c1cc(Cl)cc(C(=O)O)c1O [I-3, 5-chloro-2-hydroxy-3-(N-(4-methoxy-[1,1′-biphenyl]-3-yl)sulfamoyl)benzoic Acid] |
| > 20 µM | N#Cc1cccc(S(=O)(=O)Nc2cc(-c3ccccc3)ccc2F)c1 [I-419, 3-cyano-N-(2-fluoro-5-phenylphenyl)benzene-1-sulfonamide] |
| 0.5 to 20 µM | COc1cccc(-c2ccccc2)c1NS(=O)(=O)c1cc(Cl)cc(Cl)c1O [I-14, 3,5-dichloro-2-hydroxy-N-(3-methoxy-[1,1′-biphenyl]-2-yl)benzenesulfonamide] |
| 0.5 to 20 µM | O=c1[nH]c2cc(F)c(S(=O)(=O)Nc3cc(-c4ccccc4)ccc3F)cc2o1 [I-253] |
| 0.5 to 20 µM | COC(=O)c1cc(Cl)c(OC)c(S(=O)(=O)Nc2cc(-c3cccs3)ccc2F)c1 [I-52, Methyl 3-chloro-5-(N-(2-fluoro-5-(thiophen-2-yl)phenyl)sulfamoyl)-4-methoxybenzoate] |
| 0.5 to 20 µM | COc1ccc(F)cc1S(=O)(=O)Nc1cc(-c2ccccc2)ccc1C(=O)O [I-315, 3-((5-fluoro-2-methoxyphenyl)sulfonamido)-[1,1′-biphenyl]-4-carboxylic Acid] |
| 0.5 to 20 µM | COC(=O)c1ccc(-c2ccccc2)cc1NS(=O)(=O)c1cc(Cl)cnc1O [I-346, methyl 3-((5-chloro-2-hydroxypyridine)-3-sulfonamido)-[1,1′-biphenyl]-4-carboxylate] |
| > 20 µM | N#Cc1ccc(F)c(S(=O)(=O)Nc2cc(-c3ccccc3)ccc2F)c1 [I-418, 5-cyano-2-fluoro-N-(2-fluoro-5-phenylphenyl) benzene-1-sulfonamide] |
| > 20 µM | COc1ccc(-c2ccccc2)cc1NS(=O)(=O)c1cc(Cl)cc(C(=O)O)c1OC [I-430, 5-chloro-2-methoxy-3-(N-(4-methoxy-[1,1′-biphenyl]-3-yl)sulfamoyl)benzoic Acid] |
| 0.5 to 20 µM | O=C(O)COc1ccc(-c2ccccc2)cc1NS(=O)(=O)c1cc(C(=O)N2CCC2)cc(Cl)c1O [I-270, 2-([3-[5-(azetidine-1-carbonyl)-3-chloro-2-hydroxybenzenesulfonamido]-[1,1-biphenyl]-4-yl]oxy)acetic Acid] |
| 0.5 to 20 µM | Cn1ncc(-c2ccccc2)c1NS(=O)(=O)c1cc(Cl)cc(Cl)c1O [I-109, 3,5-dichloro-2-hydroxy-N-(1-methyl-4-phenyl-1H-pyrazol-5-yl)benzenesulfonamide] |
| 0.5 to 20 µM | O=C(O)c1cc(Br)cc(S(=O)(=O)Nc2cc(-c3ccccc3)ccc2C(=O)O)c1 [I-303, 3-((3-bromo-5-carboxyphenyl)sulfonamido)-[1,1′-biphenyl]-4-carboxylic Acid] |
| 0.5 to 20 µM | CCC(=O)Oc1ccccc1S(=O)(=O)Nc1cc(-c2ccccc2)ccc1F [I-121, 2-[(2-fluoro-5-phenylphenyl)sulfamoyl]phenyl Propanoate] |
| 0.5 to 20 µM | O=S(=O)(Nc1ccccc1Oc1ccccc1)c1cc(Cl)cc(Cl)c1O [I-285, 3,5-dichloro-2-hydroxy-N-(2-phenoxyphenyl)benzene-1-sulfonamide] |
| 0.5 to 20 µM | O=C(O)c1ccc(-c2ccccc2)cc1NS(=O)(=O)c1cc(Cl)cc(C(=O)N2CCC2)c1 [I-227, 3-((3-(azetidine-1-carbonyl)-5-chlorophenyl)sulfonamido)-[1,1′-biphenyl]-4-carboxylic Acid] |
| 0.5 to 20 µM | O=S(=O)(Nc1cc(-c2ccccc2)c(F)cc1F)c1cccc(Cl)c1F [I-195, 3-chloro-N-(4,6-difluoro-[1,1′-biphenyl]-3-yl)-2-fluorobenzenesulfonamide] |
| > 20 µM | COc1ccc(-c2ccccc2)cc1N(Cc1cc(Cl)cc(Cl)c1O)S(C)(=O)=O [I-391, N-(3,5-dichloro-2-hydroxybenzyl)-N-(4-methoxy-[1,1′-biphenyl]-3-yl)methanesulfonamide] |

Second part, the compound before the results:

| SMILES | IC50 |
| --- | --- |
| O=C(Nc1cc(Br)ccc1C(=O)O)c1cc(Cl)cc(Cl)c1 [I-519, 4-bromo-2-(3,5-dichlorobenzamido)benzoic Acid] | 0.5 to 20 µM |
| O=C(NCc1cc(-c2ccccc2)ccc1C(=O)O)c1cc(Cl)cc(Cl)c1 [I-309, 3-((3,5-dichlorobenzamido)methyl)-[1,1′-biphenyl]-4-carboxylic Acid] | 0.5 to 20 µM |
| O=C(O)c1cc(Cl)cc(S(=O)(=O)Nc2cc(-c3ccccc3)c(F)cc2F)c1 [I-147, 3-chloro-5-(N-(4,6-difluoro-[1,1′-biphenyl]-3-yl)sulfamoyl)benzoic Acid] | 0.5 to 20 µM |
| COc1ccc(Br)cc1S(=O)(=O)Nc1cc(-c2ccccc2)c(F)cc1F [I-380, 5-bromo-N-[4,6-difluoro-[1,1-bipheny1]-3-yl]-2-methoxybenzene-1-sulfonamide] | > 20 µM |
| O=S(=O)(Nc1cc(N2CCNCC2)c(F)cc1F)c1cc(Cl)cc(Cl)c1O [I-395, 3,5-dichloro-N-(2,4-difluoro-5-(piperazin-1-yl)phenyl)-2-hydroxybenzenesulfonamide] | > 20 µM |
| COc1ccc(C(=O)N2CCC2)cc1S(=O)(=O)Nc1cc(-c2ccccc2)c(F)cc1F [I-384, 5-(azetidine-1-carbonyl)-N-[4,6-difluoro-[1,1-biphenyl]-3-yl]-2-methoxybenzene-1-sulfonamide] | > 20 µM |
| Cc1c(C(=O)O)cc(Cl)c(O)c1S(=O)(=O)Nc1cc(-c2ccccc2)c(F)cc1F [I-132, 5-chloro-3-([4,6-difluoro-[1,1-biphenyl]-3-yl]sulfamoyl)-4-hydroxy-2-methylbenzoic Acid] | 0.5 to 20 µM |
| O=C(O)c1ccc(-c2ccccc2)cc1NS(=O)(=O)CCOCCN1C(=O)c2ccccc2C1=O [I-360] | 0.5 to 20 µM |
| O=S(=O)(N[C@H]1C[C@H](c2ccc(F)cc2)C1)c1cc(Cl)cc(Cl)c1O [I-167] | 0.5 to 20 µM |
| COc1ccc(-c2ccccc2)cc1N(C)S(=O)(=O)c1cc(Cl)cc(Cl)c1OC [I-401, 3,5-dichloro-2-methoxy-N-(4-methoxy-[1,1′-biphenyl]-3-yl)-N-methylbenzenesulfonamide] | > 20 µM |
| O=S(=O)(Nc1cc(-c2ccccc2)ccc1F)c1cccc(-c2nn[nH]n2)c1 [I-37, N-(2-fluoro-5-phenylphenyl)-3-(2H-1,2,3,4-tetrazol-5-yl) benzene-1-sulfonamide] | 0.5 to 20 µM |
| O=C(O)c1ccccc1NS(=O)(=O)c1cc(Cl)cc(Cl)c1 [I-522, 2-((3,5-dichlorophenyl)sulfonamido)benzoic acid] | > 20 µM |
| COc1ccc(-c2ccc(OC)c(NS(=O)(=O)c3cc(Cl)cc(Cl)c3O)c2)cc1 [I-5, 3,5-dichloro-N-(4,4′-dimethoxy-[1,1′-biphenyl]-3-yl)-2-hydroxybenzenesulfonamide] | 0.5 to 20 µM |
| CC(C)Cc1csc(NS(=O)(=O)c2cc(Cl)cc(Cl)c2O)c1C(=O)N1CCOCC1 [I-165] | 0.5 to 20 µM |
| O=C(NO)c1ccc(F)c(NS(=O)(=O)c2cc(Cl)cc(Cl)c2O)c1 [I-45, 3-[(3,5-dichloro-2-hydroxybenzene)sulfonamido]-4-fluoro-N-hydroxybenzamide] | 0.5 to 20 µM |
| COc1ccc(CN(C)S(=O)(=O)c2cc(Cl)cc(Cl)c2O)cc1 [I-166] | 0.5 to 20 µM |
| COc1ccc(Br)cc1NS(=O)(=O)c1cc(Cl)cc(Cl)c1O [I-4, N-(5-bromo-2-methoxyphenyl)-3,5-dichloro-2-Hydroxybenzenesulfonamide] | 0.5 to 20 µM |
| CS(=O)(=O)c1ccccc1S(=O)(=O)Nc1cc(-c2ccccc2)c(F)cc1F [I-385, N-[4,6-difluoro-[1,1-biphenyl]-3-yl]-2-methanesulfonylbenzene-1-sulfonamide] | > 20 µM |
| CC#Cc1cc(Cl)ccc1N(C)S(=O)(=O)c1cc(Br)cc(Cl)c1O [I-516, 5-bromo-3-chloro-N-(4-chloro-2-(prop-1-yn-1-yl)phenyl)-2-hydroxy-N-methylbenzenesulfonamide] | 0.5 to 20 µM |
| O=S(=O)(Nc1cc(-n2nccn2)c(F)cc1F)c1cc(Cl)cc(Cl)c1O [I-290, 3,5-dichloro-N-[2,4-difluoro-5-(2H-1,2,3-triazol-2-yl)phenyl]-2-hydroxybenzene-1-sulfonamide] | 0.5 to 20 µM |
| COc1cc(F)c(-c2cc3ccccc3s2)cc1NS(=O)(=O)c1cc(C(=O)O)cc(F)c1O [I-517, 3-(N-(5-(benzo[b]thiophen-2-yl)-4-fluoro-2-methoxyphenyl)sulfamoyl)-5-fluoro-4-hydroxybenzoic Acid] | 0.5 to 20 µM |
| COC(=O)c1ccc(F)c(NS(=O)(=O)c2cc(Cl)cc(Cl)c2O)c1 [I-43, Methyl 3-((3,5-dichloro-2-hydroxyphenyl)sulfonamido)-4-fluorobenzoate] | 0.5 to 20 µM |
| O=C(O)c1ccc(C(F)(F)F)cc1NS(=O)(=O)c1cc(Cl)cc(Cl)c1 [I-324, 2-((3,5-dichlorophenyl)sulfonamido)-4-(trifluoromethyl)benzoic Acid] | 0.5 to 20 µM |
| CN(c1cc(-c2ccccc2)c(F)cc1C(=O)O)S(=O)(=O)c1cc(Cl)cc(Cl)c1 [I-325, 5-((3,5-dichloro-N-methylphenyl)sulfonamido)-2-fluoro-[1,1′-biphenyl]-4-carboxylic Acid] | 0.5 to 20 µM |
| CC(C)(CNS(=O)(=O)c1cc(Cl)cc(Cl)c1O)c1cccs1 [I-173] | 0.5 to 20 µM |

same assay, conditions: read-out: ACL-ADP-Glo (IC50); 3 nM ACL, 15 μM ATP, 3 μM CoA, 300 μM Citrate

| SMILES | IC50 |
| --- | --- |
| O=C(c1cc(Cl)c(O)c(S(=O)(=O)Nc2cc(-c3ccccc3)ccn2)c1)N1CCC1 [I-237] | 0.5 to 20 µM |
